Consider four compounds from ChEMBL document CHEMBL4145528, “Novel dissymmetric 3,5-bis(arylidene)-4-piperidones as potential antitumor agents with biological evaluation in vitro and in vivo” (Eur J Med Chem, 2018).

The subject of one data set is HeLa. The experiment in a line: Cytotoxicity against human HeLa cells assessed as reduction in cell viability after 24 hrs by MTT assay. In kind it is functional, cell-based.
The next data set has as its system K562. Put plainly: Cytotoxicity against human K562 cells assessed as reduction in cell viability after 24 hrs by MTT assay. In kind it is functional, cell-based. The note with it: for IC50: K562, 24 h. (Tetrazolium assays rely on reduction of a dye to a coloured formazan, in cell work by metabolically active cells.)
Data set [1] concerns HepG2. Put plainly: Upregulation of Bax protein expression in human HepG2 cells at 50 uM after 3 hrs by western blot analysis. The data set is classed as functional, cell-based.
In data set [2] the test system is HepG2. The experiment in a line: Cytotoxicity against human HepG2 cells assessed as reduction in cell viability after 24 hrs by MTT assay. The data set is classed as functional, cell-based. The settings on record: for IC50: HepG2, 24 h.
In a further data set the test system is L02. The experiment in a line: Cytotoxicity against human LO2 cells assessed as reduction in cell viability after 24 hrs by MTT assay. In kind it is cell-based. The note with it: L02, 24 h.
Data set [3] has as its system HepG2. The experiment in a line: Downregulation of Bcl2 protein expression in human HepG2 cells at 50 uM after 3 hrs by western blot analysis. In kind it is functional, cell-based. (In western blotting, separated proteins are transferred to a membrane and probed.)
For another data set, the system named is THP-1. Put plainly: Cytotoxicity against human THP1 cells assessed as reduction in cell viability after 24 hrs by MTT assay. In kind it is functional, cell-based. The settings on record: for IC50: THP-1, 24 h.
The nature of data set [4]: Drug uptake in human HepG2 cell cytoplasm at 10 mg/ml after 1 to 3 hrs by Hoechst 33342 staining based confocal laser scanning microscopic method. The data set is classed as ADME, subcellular.
Data set [5] in a line: Drug uptake in human HepG2 cell nucleus at 10 mg/ml after 4 hrs by Hoechst 33342 staining based confocal laser scanning microscopic method. The note with it: hepg2, 4 h. In kind it is ADME, subcellular.
Data set [6] deals with HepG2. The experiment in a line: Antitumor activity against human HepG2 cells xenografted in Balb/c nude mouse assessed as tumor growth inhibition at 10 mg/kg/day, ip daily for 20 days measured on day 21. In kind it is functional, organism-based. For orientation: A xenograft is tissue or cells of one species grown in another, often human tumour cells in immunodeficient mice.

The subject of data set [7] is HepG2. Put plainly: Induction of apoptosis in human HepG2 cells after 24 hrs by Annexin V-FITC/propidium iodide staining based flow cytometry. The data set is classed as functional, cell-based.
The nature of data set [8]: Drug uptake in human HepG2 cell nucleus at 10 mg/ml after 1 to 3 hrs by Hoechst 33342 staining based confocal laser scanning microscopic method. In kind it is ADME, subcellular.
For another data set, the system named is Mus musculus. The experiment in a line: Toxicity in Balb/c nude mouse xenografted with human HepG2 cells assessed as change in body weight at 10 mg/kg/day, ip daily for 20 days measured every 2 days during compound dosing. The data set is classed as organism-based. The note with it: in vivo.
Data set [9] can be described thus: Drug uptake in human HepG2 cell cytoplasm at 10 mg/ml after 4 hrs by Hoechst 33342 staining based confocal laser scanning microscopic method. The note with it: hepg2, 4 h. The data set is classed as ADME, subcellular.
Data set [10] has as its system HepG2. The experiment in a line: Cytotoxicity against human HepG2 cells assessed as cell morphology disruption at 10 mg/ml after 4 hrs by Hoechst 33342 staining based confocal laser scanning microscopic method. In kind it is functional.
Data set [11] has as its system HepG2. The experiment in a line: Antitumor activity against human HepG2 cells xenografted in Balb/c nude mouse assessed as tumor growth inhibition at 1 mg/kg/2 days, ip for 20 days measured on day 21. The data set is classed as functional, organism-based.

SMILES strings stand for the structures. Activity calls are given as the source filed them. The rule behind the calls is not given here.

What is called IC50 is the concentration at which inhibition is half-maximal. With `COc1cc(/C=C2\CN(C)C/C(=C\c3cc(OC)c(OC)c(OC)c3)C2=O)cc(OC)c1`, the Activity result in the data set with HeLa, with K562, in the data set on HepG2 [2] and with THP-1 was “Dose-dependent effect” throughout. The IC50 in the data set on HeLa stood at 2300 nM; in the data set with K562, 3470 nM; with HepG2 [2], 890 nM; with L02, 14600 nM; with THP-1, 720 nM. In addition, the outcome in the data set on HepG2 [1] and with HepG2 [3] was Active.

In the case of `CN1C/C(=C\c2ccc(C(F)(F)F)cc2)C(=O)/C(=C/c2cccc([N+](=O)[O-])c2)C1`, the Activity entry in the data set on HeLa, in the data set with K562, in the data set with HepG2 [2] and in the data set with THP-1 was “Dose-dependent effect” each time. Also, the 50% inhibitory concentration (IC50) was determined as 3560 nM in the data set on HeLa; 4780 nM in the data set with K562; 1040 nM in the data set with HepG2 [2]; 12400 nM in the data set with L02; 970 nM with THP-1. In addition, the result with HepG2 [1] and in the data set with HepG2 [3] was Active.

Take `COc1cc(/C=C2\CN(C)C/C(=C\c3ccccc3F)C2=O)cc(OC)c1OC`: the Activity entry was “Dose-dependent effect” with HeLa; “Dose-dependent effect” with K562; “Dose-dependent effect” with HepG2 [2]; “Dose-dependent effect” with HepG2 [7]; “Non-Toxic” in the data set on Mus musculus; “Dose-dependent effect” in the data set with THP-1. The IC50 stood at 3220 nM with HeLa; 4340 nM in the data set with K562; 670 nM with HepG2 [2]; 12000 nM in the data set with L02; 640 nM with THP-1. For the same compound, the result in the data set with HepG2 [1], with HepG2 [3] and with HepG2 [10] was Active. For the same compound, the Drug uptake entry in data set [4] is “Active”; in data set [5] it was “Active”; in data set [8] it was “Not Active”; in [9] it was “Not Active”. For the same compound, the TGI entry with HepG2 [6] is “Active”.

For `COc1cccc2c1C(=O)c1c(O)c3c(c(O)c1C2=O)C[C@@](O)(C(=O)CO)C[C@@H]3O[C@H]1C[C@H](N)[C@H](O)[C@H](C)O1` [DOXORUBICIN], the IC50 in the data set with HeLa came out at 2230 nM; in the data set with HepG2 [2], 680 nM; in the data set with L02, 6930 nM; in the data set on THP-1, 670 nM. Besides, the TGI entry with HepG2 [11] is “Active”.
